In patent publication US20230382889A1 (Volastra Therapeutics, Inc., priority 2022, published 2023):
pIC50: −log10 of the molar value. Where two headings read alike, the source gives them in different places.

Columns and labels:
HCC15 cells = assay: Cell viability of KIF18a-sensitive cell lines, HCC15 (Cell Titre-Glo, 7 days); assay type: cell-based; details: HCC15, 7 days, read-out: HCC15 IC50
Method: (§1) Cell lines were seeded as follows 24 hours before compound treatment: HCC15 (Korean Cell Line Bank) 600 cell/well, 95 μL of RPMI-1640 media supplemented with 100 units/mL penicillin, 100 units/mL streptomycin and 10% FBS; NIH:OVCAR-3 (ATCC), 1000 cell/well, 95 μL of RPMI-1640 media supplemented with 100 units/mL penicillin, 100 units/mL streptomycin, 0.01 mg/mL bovine insulin, and 20% FBS; JIMT-1 (Addexbio) 1000 cell/well, 95 μL of DMEM media supplemented with 100 units/mL penicillin, 100 units/mL streptomycin, and 10% FBS.
(§2) Test compounds were added to cells in a 20× dilution scheme by adding 5 μL of serially diluted compound to the plate, and the treated cells were incubated for an additional 7 days in a 37° C., 5% CO2 incubator. DMSO was used as the negative control (0% effect), and wells omitting cells were used as the positive control (100% effect). The cells were incubated for seven days, and cell viability determined via the Promega Cell Titre-Glo® Assay kit. Luminescence units were converted to ATP concentrations via an ATP standard curve (10 point, 2-fold dilution from 5 uM). % Inhibition was calculated for each well as: ([max−min]−[test−min])/[max−min]. IC50 values were calculated from concentration vs. % Inhibition data via a four-parameter variable slope model.

JIMT-1 cells = assay: Cell viability of KIF18a-sensitive cell lines, JIMT-1 (Cell Titre-Glo, 7 days); assay type: cell-based; details: JIMT-1, 7 days, read-out: JIMT-1 IC50
Method: as §1, §2

NIH:OVCAR-3 cells = assay: Cell viability of KIF18a-sensitive cell lines, NIH:OVCAR-3 (Cell Titre-Glo, 7 days); assay type: cell-based; details: NIH:OVCAR3, 7 days, read-out: NIH:OVCAR3 IC50
Method: as §1, §2

hKIF18A (1-374) = hKIF18A (1-374) (Homo sapiens (Human), UniProt Q8NI77); assay: Inhibition of KIF18A microtubule-dependent ATPase activity (ADP-Glo); assay type: biochemical; details: 4 nM hKIF18A (1-374)
Summary of the method: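 Reaction was started with pre-formed microtubules and ATP (0.2 mg/mL and 2.0 mM in the added mix) and run 60 min at 28 °C. ADP was read by ADP-Glo luminescence, and IC50 came from a four-parameter fit of % inhibition.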

hKIF18A (1-374), sequence (Q8NI77 1-374): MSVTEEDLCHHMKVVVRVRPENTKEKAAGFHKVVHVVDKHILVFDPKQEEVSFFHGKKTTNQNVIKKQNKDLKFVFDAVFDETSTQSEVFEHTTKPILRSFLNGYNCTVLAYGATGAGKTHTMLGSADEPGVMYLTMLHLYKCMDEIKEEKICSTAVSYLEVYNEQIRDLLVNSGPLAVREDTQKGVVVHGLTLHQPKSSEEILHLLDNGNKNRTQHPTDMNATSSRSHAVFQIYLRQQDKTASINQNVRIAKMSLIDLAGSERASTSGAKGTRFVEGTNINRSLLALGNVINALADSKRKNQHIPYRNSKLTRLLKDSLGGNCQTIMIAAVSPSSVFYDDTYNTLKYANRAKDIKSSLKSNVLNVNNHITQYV

| Structure (SMILES) | pIC50 (HCC15 cells; 168 h) | pIC50 (NIH:OVCAR-3 cells; Homo sapiens, OVCAR-3, 168 h) | pIC50 (hKIF18A (1-374)) | pIC50 (HCC15 cells) | pIC50 (NIH:OVCAR-3 cells) | pIC50 (JIMT-1 cells; Homo sapiens, 168 h) | pIC50 (JIMT-1 cells) |
| --- | --- | --- | --- | --- | --- | --- | --- |
| Cc1cc(-c2cn(-c3ccc(NS(=O)(=O)CCO)cc3N3CCC4(CC3)CC4)nn2)nc(N2CCCCC2)n1 [Compound 101, 2-hydroxy-N-(4-(4-(6-methyl-2-(piperidin-1-yl)pyrimidin-4-yl)-1H-1,2,3-triazol-1-yl)-3-(6-azaspiro[2.5]octan-6-yl)phenyl)ethane-1-sulfonamide] | 7.80 | 7.57 | 7.77 | – | – | 7.57 | – |
| O=S(=O)(CCO)Nc1ccc(-c2cn(-c3cncc(N4CCC(F)(F)CC4)n3)nn2)c(N2CCC3(CC2)CC3)c1 [Compound 96, N-(4-(1-(6-(4,4-difluoropiperidin-1-yl)pyrazin-2-yl)-1H-1,2,3-triazol-4-yl)-3-(6-azaspiro[2.5]octan-6-yl)phenyl)-2-hydroxyethane-1-sulfonamide] | 7.77 | 7.55 | 8.36 | – | – | 7.36 | – |
| O=S(=O)(CCO)Nc1ccc(-n2cc(-c3cccc(C(O)C4CCCC4)n3)nn2)c(N2CCC3(CC2)CC3)c1 (single isomer, unassigned) [Compound 90a] | – | – | 8.28 | 8.13 | 7.85 | – | 7.96 |
| O=S(=O)(CCO)Nc1ccc(-n2cc(-c3ccn(C4CCC(F)(F)CC4)n3)nn2)c(N2CCC3(CCC3)CC2)c1 [Compound 130, N-(4-(4-(1-(4,4-difluorocyclohexyl)-1H-pyrazol-3-yl)-1H-1,2,3-triazol-1-yl)-3-(7-azaspiro[3.5]nonan-7-yl)phenyl)-2-hydroxyethane-1-sulfonamide] | 7.92 | 7.72 | 8.30 | – | – | 7.54 | – |
| O=S(=O)(CCO)Nc1ccc(-n2cc(-c3cccc(C(O)C4CCCC4)n3)nn2)c(N2CCC3(CC2)CC3)c1 (single isomer, unassigned) [Compound 90b] | – | – | 8.25 | 7.89 | 7.68 | – | 7.70 |
| Cc1cc(-c2cn(-c3ccc(NS(=O)(=O)CCO)cc3N3CCC4(CC3)CC4)nn2)nc(N2CC3C(C2)C3(F)F)n1 (centres unmarked) [Compound 73, N-(4-(4-(2-(6,6-difluoro-3-azabicyclo[3.1.0]hexan-3-yl)-6-methylpyrimidin-4-yl)-1H-1,2,3-triazol-1-yl)-3-(6-azaspiro[2.5]octan-6-yl)phenyl)-2-hydroxyethane-1-sulfonamide] | 8.00 | 7.85 | 7.96 | – | – | 7.38 | – |
| O=S(=O)(CCO)Nc1ccc(-c2cn(-c3cccc(N4CCC(F)(F)CC4)n3)nn2)c(N2CCC3(CC2)CC3)c1 [Compound 71, N-(4-(1-(6-(4,4-difluoropiperidin-1-yl)pyridin-2-yl)-1H-1,2,3-triazol-4-yl)-3-(6-azaspiro[2.5]octan-6-yl)phenyl)-2-hydroxyethane-1-sulfonamide] | 7.92 | 7.89 | 8.00 | – | – | 7.70 | – |
| O=S(=O)(CCO)Nc1ccc(-n2cc(-c3cccc(OC4CCCC4)n3)nn2)c(N2CCC3(CC2)CC3)c1 [Compound 100, N-(4-(4-(6-(cyclopentyloxy)pyridin-2-yl)-1H-1,2,3-triazol-1-yl)-3-(6-azaspiro[2.5]octan-6-yl)phenyl)-2-hydroxyethane-1-sulfonamide] | 7.35 | 7.10 | 7.96 | – | – | 7.22 | – |
| Cc1cc(-n2cc(-c3ccc(NS(=O)(=O)CCO)cc3N3CCC4(CC3)CC4)nn2)nc(N2CC3C(C2)C3(F)F)n1 (centres unmarked) [Compound 97, N-(4-(1-(2-(6,6-difluoro-3-azabicyclo[3.1.0]hexan-3-yl)-6-methylpyrimidin-4-yl)-1H-1,2,3-triazol-4-yl)-3-(6-azaspiro[2.5]octan-6-yl)phenyl)-2-hydroxyethane-1-sulfonamide] | 7.43 | 7.14 | 7.44 | – | – | 6.96 | – |
| Cc1cc(N2CCC(F)(F)CC2)nc(-n2cc(-c3ccc(NS(=O)(=O)CCO)cc3N3CCC4(CC3)CC4)nn2)c1 [Compound 95, N-(4-(1-(6-(4,4-difluoropiperidin-1-yl)-4-methylpyridin-2-yl)-1H-1,2,3-triazol-4-yl)-3-(6-azaspiro[2.5]octan-6-yl)phenyl)-2-hydroxyethane-1-sulfonamide] | 7.43 | 7.29 | 7.42 | – | – | 7.17 | – |

Now from value to compound, other results behind:

| pIC50 (HCC15 cells; 168 h) | pIC50 (NIH:OVCAR-3 cells; Homo sapiens, OVCAR-3, 168 h) | pIC50 (hKIF18A (1-374)) | pIC50 (HCC15 cells) | pIC50 (NIH:OVCAR-3 cells) | Structure (SMILES) | pIC50 (JIMT-1 cells; Homo sapiens, 168 h) | pIC50 (JIMT-1 cells) |
| --- | --- | --- | --- | --- | --- | --- | --- |
| 6.92 | 6.92 | 7.60 | – | – | CS(=O)(=O)Nc1ccc(-c2cn(-c3cccc(N4CCC(F)(F)CC4)c3)nn2)c(N2CCC3(CC2)CC3)c1 [Compound 64, N-(4-(1-(3-(4,4-difluoropiperidin-1-yl)phenyl)-1H-1,2,3-triazol-4-yl)-3-(6-azaspiro[2.5]octan-6-yl)phenyl)methanesulfonamide] | 6.92 | – |
| 8.00 | 7.89 | 7.70 | – | – | CCS(=O)(=O)Nc1cc(N2CCC3(CC2)CC3)c(-n2cc(-c3cccc(S(=O)(=O)NC(C)(C)C)c3)nn2)cc1F [Compound 117, N-(tert-butyl)-3-(1-(4-(ethylsulfonamido)-5-fluoro-2-(6-azaspiro[2.5]octan-6-yl)phenyl)-1H-1,2,3-triazol-4-yl)benzenesulfonamide] | 7.85 | – |
| 8.52 | 8.35 | 8.14 | – | – | CS(=O)(=O)Nc1ccc(-n2cc(-c3cccc(S(=O)(=O)N4CC(F)(F)C4)c3)nn2)c(N2CCC3(CC2)CC3)c1 [Compound 13, N-(4-(4-(3-((3,3-difluoroazetidin-1-yl)sulfonyl)phenyl)-1H-1,2,3-triazol-1-yl)-3-(6-azaspiro[2.5]octan-6-yl)phenyl)methanesulfonamide] | 8.33 | – |
| 7.89 | 7.89 | 7.74 | – | – | O=S(=O)(Nc1ccc(-n2cc(-c3cccc(N4CCC(F)(F)CC4)n3)nn2)c(N2CCC3(CC2)CC3)c1)C1(CO)CC1 [Compound 62, N-(4-(4-(6-(4,4-difluoropiperidin-1-yl)pyridin-2-yl)-1H-1,2,3-triazol-1-yl)-3-(6-azaspiro[2.5]octan-6-yl)phenyl)-1-(hydroxymethyl)cyclopropane-1-sulfonamide] | 8.02 | – |
| 8.44 | 8.41 | 7.85 | – | – | CCS(=O)(=O)Nc1ccc(-n2cc(-c3cccc(S(=O)(=O)NC(C)(C)C)c3)nn2)c(N2CCC3(CC2)CC3)c1 [Compound 116, N-(tert-butyl)-3-(1-(4-(ethylsulfonamido)-2-(6-azaspiro[2.5]octan-6-yl)phenyl)-1H-1,2,3-triazol-4-yl)benzenesulfonamide] | 8.20 | – |
| 7.74 | 7.60 | 7.49 | – | – | CCS(=O)(=O)Nc1ccc(-n2cc(-c3cc(C)nc(N4CCC(F)(F)CC4)n3)nn2)c(N2CCC3(CC2)CC3)c1 [Compound 106, N-(4-(4-(2-(4,4-difluoropiperidin-1-yl)-6-methylpyrimidin-4-yl)-1H-1,2,3-triazol-1-yl)-3-(6-azaspiro[2.5]octan-6-yl)phenyl)ethanesulfonamide] | 7.62 | – |
| 7.60 | 7.68 | 7.74 | – | – | CS(=O)(=O)Nc1ccc(-c2cn(-c3cccc(N4CCC(F)(F)CC4)n3)nn2)c(N2CCC3(CC2)CC3)c1 [Compound 29, N-(4-(1-(6-(4,4-difluoropiperidin-1-yl)pyridin-2-yl)-1H-1,2,3-triazol-4-yl)-3-(6-azaspiro[2.5]octan-6-yl)phenyl)methanesulfonamide] | 7.64 | – |
